Measured values as given in US4835160A, “Derivatives of pyridoindole, having anti-tumor properties” (Sanofi, priority 1986, dated 1989).

How the values were obtained:
[1] = test system: leukemia P 388; assay: Test of leukemia P 388; IP/IP, D1-5; assay type: in vivo, CDF1 hybrid mice; conditions: D1-D5; for Number of survivors: day D30; for T/C %: survival time
Summary of the method: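 CDF1 hybrid mice received 10^6 P 388 cells intraperitoneally, then compound in distilled water by intraperitoneal route daily D1-D5, 10 mice per group, 5-fluorouracil as positive control. Activity judged as T/C survival time versus untreated controls, survivors counted at D30; T/C ≤85% or day 5 minus day 1 weight change ≤ −4 g counted as toxic.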

[2] = test system: colic adenocarcinoma 38; assay: Test for colic adenocarcinoma 38, SC/D1 IV; assay type: in vivo, BDF1 hybrid mice; conditions: for Number of survivors: day D38; for T/C % at D38: tumour volume
Experimental: (§1) The antitumour activity was tested in vivo on various tumours inoculated in various ways according to the following general protocol:
(§2) All the male or female mice are inoculated on day D0 with a known quantity of viable tumour cells for ascitic tumours or with a known tumour fragment for solid tumours.
(§3) They are then distributed into various groups. Each group, corresponding to the animals treated by the product under test, is made up of 10 mice. The product under test is dissolved in distilled water and it is administered n times (Dx-Dy), n, y, and x varying according to the protocol chosen, at the rate of 0.1 ml of solution per 10 g by weight of mice treated and at specific doses for each protocol.
(§4) The "negative control" group, corresponding to the animals which are not treated by the product, contains 2√N animals, N being equal to or greater than the total number of mice treated by the product in the same experiment.
(§5) the antitumour activity is evaluated, in the case of solid tumours, by considering the reduction in the average tumour volume of the treated animals in comparison with the animals of the "negative control" group, according to the formula: [formula]
(§6) A value for T/C of less than 42% indicates an activity for the product at the studied dose.
(h) Test for colic adenocarcinoma 38, SC/D1 IV. (GERAN et al., Cancer Chemother., 1972, 2, 07-57).
(§7) The tests are carried out with BDF1 hybrid mice inoculated by subcutaneous route with a standardized tumour fragment of 3 mm^3. The compound under test is administered by intravenous route only on day D1.
The number of surviving animals is evaluated on day D38.

[3] = test system: colic adenocarcinoma 38; assay: Test for colic adenocarcinoma 38, SC/D2,9 IV; assay type: in vivo, BDF1 hybrid mice; parameters: Average tumour volume at D32: unit not given beside the values; conditions: D2 and D9; for Number of survivors: day D32; for T/C % at D32: tumour volume
Experimental: as §1, §2, §3, §4, §5, §6, §7
(i) Test for colic adenocarcinoma 38, SC/D2,9 IV (GERAN et al., Cancer Chemother., 1972, 2, 07-57).
This test is carried out according to the protocol described for test (h), the compound under test being administered by intravenous route on day D2 then on day D9.
The number of surviving animals is evaluated on day D32.

[4] = test system: leukemia tumour line L 1210; assay: In vitro cytotoxic activity on leukemia tumour line L 1210; assay type: cell-based; conditions: L 1210, 48 hours contact, 37° C.; read-out: I D 50 (concentration which inhibits the proliferation of the cells by 50%)
Summary of the method: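 Exponentially growing L 1210 leukemia cells were exposed to increasing compound concentrations at 37 °C under CO2 and counted every 24 h. ID50, the concentration inhibiting proliferation by 50%, was calculated after 48 h contact.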

[5] = test system: leukemia P388; assay: Test for leukemia P388, IP/IP, D1; assay type: in vivo, CDF1 hybrid mice; conditions: for Number of survivors: day D30; for T/C %: survival time
Experimental: as §1, §2, §3, §4
(§8) Finally, the tests can also be carried out at the same time as the study of a group called "positive control", of ten animals, which is treated by a molecule, known for its antitumour activity and which can vary according to the protocol chosen, in the same conditions as the groups treated by the product under test.
(§9) The antitumour activity is evaluated, in the case of ascitic tumours, by considering the increase in the survival time of the animals treated in comparison to that of the animals in the "negative control" group, according to the formula: [formula]
(§10) Also, a product is considered as toxic at the dose studied when this T/C value is equal to or less than 85%. In addition, a product is also considered as toxic at the dose studied when the weight variation, expressed in grams and calculated by the formula: […]
(§11) The tests are carried out with CDF1 hybrid mice inoculated by intraperitoneal route with 10^6 leukemia cells from the P 388 line. The compound under test is administered for 5 successive days (D1-D5) by intraperitoneal route. The positive control for the test is 5-fluorouracile which is administered in the same conditions. The number of surviving animals is evaluated on day D30.
(b) Test for Leukemia P388, IP/IP, D1 (GERAN et al. Cancer chemother., 1972, 2, 07-57).
The test is carried out according to the preceding protocol, the compound under test being administered only on day D1.

[6] = test system: leukemia P 388; assay: Test for leukemia P 388 IP/D1 IV; assay type: in vivo, CDF1 hybrid mice; conditions: for Number of survivors: day D30; for T/C %: survival time
Experimental: as §1, §2, §3, §4, §8, §9, §10, §11
(f) Test for leukemia P 388 IP/D1 IV (GERAN et al., Cancer Chemother., 1972, 2, 07-57).
The test is carried out according to the same protocol as that described for test (a), the compound under test being administered by intravenous route only on day D1.

Compound: CCN(CC)CCCNc1ncc(C)c2c1c1cc(O)ccc1n2C [Derivative No. 12, 1-(3-diethylaminopropylamino)-4,5-dimethyl-8-hydroxy-5H-pyrido[4,3-b]indole]
- Median day of survival ([1]; 1.25 mg/kg IP): 16.7 days
- Variation by weight ([1]; 1.25 mg/kg IP): -0.5 g
- Number of survivors ([1]; 1.25 mg/kg IP): 1/10
- T/C % ([1]; 1.25 mg/kg IP): 152%
- Median day of survival ([1]; 2.5 mg/kg IP): 18.0 days
- Variation by weight ([1]; 2.5 mg/kg IP): -1.2 g
- Number of survivors ([1]; 2.5 mg/kg IP): 0/10
- T/C % ([1]; 2.5 mg/kg IP): 164%
- Median day of survival ([1]; 5 mg/kg IP): 19.00 days
- Variation by weight ([1]; 5 mg/kg IP): -1.9 g
- Number of survivors ([1]; 5 mg/kg IP): 2/10
- T/C % ([1]; 5 mg/kg IP): 173%
- Median day of survival ([1]; 10 mg/kg IP): 19.3 days
- Number of survivors ([1]; 10 mg/kg IP): 0/10
- T/C % ([1]; 10 mg/kg IP): 176%
- Median day of survival ([1]; 20 mg/kg IP): 9.7 days
- Variation by weight ([1]; 20 mg/kg IP): -5.9 g
- Number of survivors ([1]; 20 mg/kg IP): 0/10
- T/C % ([1]; 20 mg/kg IP): 88%
- Average tumour volume at D38 ([2]; 100 mg/kg IV): 3.24
- Number of survivors ([2]; 100 mg/kg IV): 10/10
- T/C % at D38 ([2]; 100 mg/kg IV): 36%
- Average tumour volume at D32 ([3]; 50 mg/kg IV): 1.38
- Number of survivors ([3]; 50 mg/kg IV): 10/10
- T/C % at D32 ([3]; 50 mg/kg IV): 18%
- Average tumour volume at D32 ([3]; 75 mg/kg IV): 0.97
- Number of survivors ([3]; 75 mg/kg IV): 10/10
- T/C % at D32 ([3]; 75 mg/kg IV): 13%
- IC50 [4]: 0.035 µM
- Median day of survival ([5]; 5 mg/kg IP): 15.87 days
- Variation by weight (g) ([5]; 5 mg/kg IP): +0.1 g
- Number of survivors ([5]; 5 mg/kg IP): 0/10
- T/C % ([5]; 5 mg/kg IP): 139%
- Median day of survival ([5]; 10 mg/kg IP): 17.75 days
- Variation by weight ([5]; 10 mg/kg IP): -0.6 g
- Number of survivors ([5]; 10 mg/kg IP): 0/10
- T/C % ([5]; 10 mg/kg IP): 156%
- Median day of survival ([5]; 20 mg/kg IP): 20.75 days
- Variation by weight ([5]; 20 mg/kg IP): -1.2 g
- Number of survivors ([5]; 20 mg/kg IP): 0/10
- T/C % ([5]; 20 mg/kg IP): 182%
- Median day of survival ([5]; 40 mg/kg IP): 23.0 days
- Variation by weight ([5]; 40 mg/kg IP): -6.2 g
- Number of survivors ([5]; 40 mg/kg IP): 1/10
- T/C % ([5]; 40 mg/kg IP): 202%
- Median day of survival ([6]; 50 mg/kg IV): 19.0 days
- Variation by weight ([6]; 50 mg/kg IV): -0.7 g
- Number of survivors ([6]; 50 mg/kg IV): 0/10
- T/C % ([6]; 50 mg/kg IV): 174%
- Median day of survival ([6]; 100 mg/kg IV): 24.3 days
- Variation by weight ([6]; 100 mg/kg IV): -1.6 g
- Number of survivors ([6]; 100 mg/kg IV): 1/10
- T/C % ([6]; 100 mg/kg IV): 223%

Compound: Cc1cnc(NCCCN(C)C)c2c3cc(O)ccc3n(C)c12 [Derivative No. 15, 4,5-dimethyl 1(3-dimethylaminopropylamino)-8-hydroxy-5H-pyrido[4,3-b]indole]
- Median day of survival ([1]; 1.25 mg/kg IP): 18.0 days
- Variation by weight ([1]; 1.25 mg/kg IP): -1.9 g
- Number of survivors ([1]; 1.25 mg/kg IP): 0/10
- T/C % ([1]; 1.25 mg/kg IP): 164%
- Median day of survival ([1]; 2.5 mg/kg IP): 20.25 days
- Variation by weight ([1]; 2.5 mg/kg IP): -1.9 g
- Number of survivors ([1]; 2.5 mg/kg IP): 0/10
- T/C % ([1]; 2.5 mg/kg IP): 184%
- Median day of survival ([1]; 5 mg/kg IP): 26 days
- Variation by weight ([1]; 5 mg/kg IP): -2.5 g
- Number of survivors ([1]; 5 mg/kg IP): 1/10
- T/C % ([1]; 5 mg/kg IP): 236%
- Median day of survival ([1]; 10 mg/kg IP): 9.3 days
- Variation by weight ([1]; 10 mg/kg IP): -4.1 g
- Number of survivors ([1]; 10 mg/kg IP): 0/10
- T/C % ([1]; 10 mg/kg IP): 85%
- Average tumour volume at D38 ([2]; 50 mg/kg IV): 2.73
- Number of survivors ([2]; 50 mg/kg IV): 10/10
- T/C % at D38 ([2]; 50 mg/kg IV): 30%
- Average tumour volume at D32 ([3]; 25 mg/kg IV): 0.0
- Number of survivors ([3]; 25 mg/kg IV): 10/10
- T/C % at D32 ([3]; 25 mg/kg IV): 0%
- Average tumour volume at D32 ([3]; 50 mg/kg IV): 0.0
- Number of survivors ([3]; 50 mg/kg IV): 10/10
- T/C % at D32 ([3]; 50 mg/kg IV): 0%
- IC50 [4]: 0.01 µM
- Median day of survival ([6]; 50 mg/kg IV): 17.75 days
- Variation by weight (g) ([6]; 50 mg/kg IV): +0.5 g
- Number of survivors ([6]; 50 mg/kg IV): 1/10
- T/C % ([6]; 50 mg/kg IV): 163%
- Median day of survival ([6]; 100 mg/kg IV): 25.75 days
- Variation by weight ([6]; 100 mg/kg IV): -0.25 g
- Number of survivors ([6]; 100 mg/kg IV): 4/10
- T/C % ([6]; 100 mg/kg IV): 236%
